SMILES strings stand for the structures.

The target in this assay is T1, AtaC (Vnz_27310) (Streptomyces venezuelae, UniProt F2R7Z6, D269N).
T1 sequence (F2R7Z6 1-401 D269N): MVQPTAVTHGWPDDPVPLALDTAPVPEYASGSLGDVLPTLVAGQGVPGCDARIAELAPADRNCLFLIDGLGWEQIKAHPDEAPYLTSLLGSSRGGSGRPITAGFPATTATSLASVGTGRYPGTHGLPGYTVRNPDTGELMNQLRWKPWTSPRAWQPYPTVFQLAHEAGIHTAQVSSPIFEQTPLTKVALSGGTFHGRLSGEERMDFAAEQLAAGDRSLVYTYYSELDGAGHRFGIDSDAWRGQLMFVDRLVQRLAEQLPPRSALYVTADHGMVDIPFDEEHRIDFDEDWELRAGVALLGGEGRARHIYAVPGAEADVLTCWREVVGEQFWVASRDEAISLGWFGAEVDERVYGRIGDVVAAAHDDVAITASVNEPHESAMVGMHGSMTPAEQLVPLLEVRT
Nature of the assay: ITC. It is filed as binding.

On to `Nc1ncnc2c1ncn2[C@@H]1O[C@@H]2COP(=O)(O)O[C@H]3[C@@H](O)[C@H](n4cnc5c(N)ncnc54)O[C@@H]3COP(=O)(O)O[C@H]2[C@H]1O` [c-di-AMP], for which the Kd came out at 949 ± 360 nM.

Usually Kd stands for a measure of binding affinity in units of concentration. Read a low Kd as higher affinity.

Values taken from paper PMC7132281 (Proceedings of the National Academy of Sciences of the …, 2020).
